Laboratory results reported in ChEMBL document CHEMBL5223109, “The discovery of BMS-737 as a potent, CYP17 lyase-selective inhibitor for the treatment of castration-resistant prostate cancer” (Bioorg Med Chem Lett, 2022).
pIC50: −log10 of the molar value.

Assays:
[1] = molecular target: T1, Steroid 17-alpha-hydroxylase/17,20 lyase (Homo sapiens, UniProt P05093); assay: Inhibition of human CYP17A1; format: ADME
T1 sequence (P05093 whole entry): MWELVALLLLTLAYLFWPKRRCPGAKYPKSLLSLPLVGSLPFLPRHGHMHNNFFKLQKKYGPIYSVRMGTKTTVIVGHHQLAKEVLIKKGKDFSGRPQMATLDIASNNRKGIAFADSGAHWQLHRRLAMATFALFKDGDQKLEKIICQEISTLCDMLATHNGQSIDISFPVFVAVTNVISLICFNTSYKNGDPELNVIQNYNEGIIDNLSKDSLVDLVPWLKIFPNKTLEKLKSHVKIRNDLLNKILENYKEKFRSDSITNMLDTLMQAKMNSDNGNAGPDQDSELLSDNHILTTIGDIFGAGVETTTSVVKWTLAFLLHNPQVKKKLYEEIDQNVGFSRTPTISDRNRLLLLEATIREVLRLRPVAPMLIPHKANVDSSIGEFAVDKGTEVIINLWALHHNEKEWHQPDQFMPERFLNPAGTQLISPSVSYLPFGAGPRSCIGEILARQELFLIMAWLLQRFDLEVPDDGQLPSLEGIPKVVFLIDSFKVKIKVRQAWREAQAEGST

[2] = Metabolic stability in mouse liver microsomes assessed as parent compound remaining; format: ADME, Microsome
Cytochrome P450 1A2 = molecular target: T2, Cytochrome P450 1A2 (Homo sapiens, UniProt P05177); assay: Inhibition of CYP1A2 (unknown origin); format: ADME
T2 sequence (P05177 whole entry): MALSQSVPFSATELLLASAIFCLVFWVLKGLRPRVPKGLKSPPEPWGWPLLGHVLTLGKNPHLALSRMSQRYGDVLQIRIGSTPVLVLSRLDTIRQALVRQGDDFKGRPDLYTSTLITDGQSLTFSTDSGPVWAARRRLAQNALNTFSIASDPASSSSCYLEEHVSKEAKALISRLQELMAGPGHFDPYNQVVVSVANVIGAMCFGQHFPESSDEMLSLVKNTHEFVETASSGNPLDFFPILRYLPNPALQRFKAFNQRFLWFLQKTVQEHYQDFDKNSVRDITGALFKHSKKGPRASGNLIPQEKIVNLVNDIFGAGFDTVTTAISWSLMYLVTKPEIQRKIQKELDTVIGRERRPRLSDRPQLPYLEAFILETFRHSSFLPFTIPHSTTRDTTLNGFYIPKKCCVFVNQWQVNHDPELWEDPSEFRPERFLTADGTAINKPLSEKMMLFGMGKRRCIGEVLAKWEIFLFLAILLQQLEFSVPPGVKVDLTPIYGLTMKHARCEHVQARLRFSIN

[3] = molecular target: T1, Steroid 17-alpha-hydroxylase/17,20 lyase; assay: Selectivity ratio for inhibition of human CYP17A1 hydroxylase activity to inhibition of human CYP17A1 lyase activity; format: ADME
[4] = molecular target: T3, Steroid 17-alpha-hydroxylase/17,20 lyase (Macaca fascicularis, UniProt Q2XVA1); assay: Inhibition of cynomolgus monkey CYP17A1; format: ADME
T3 sequence (Q2XVA1 whole entry): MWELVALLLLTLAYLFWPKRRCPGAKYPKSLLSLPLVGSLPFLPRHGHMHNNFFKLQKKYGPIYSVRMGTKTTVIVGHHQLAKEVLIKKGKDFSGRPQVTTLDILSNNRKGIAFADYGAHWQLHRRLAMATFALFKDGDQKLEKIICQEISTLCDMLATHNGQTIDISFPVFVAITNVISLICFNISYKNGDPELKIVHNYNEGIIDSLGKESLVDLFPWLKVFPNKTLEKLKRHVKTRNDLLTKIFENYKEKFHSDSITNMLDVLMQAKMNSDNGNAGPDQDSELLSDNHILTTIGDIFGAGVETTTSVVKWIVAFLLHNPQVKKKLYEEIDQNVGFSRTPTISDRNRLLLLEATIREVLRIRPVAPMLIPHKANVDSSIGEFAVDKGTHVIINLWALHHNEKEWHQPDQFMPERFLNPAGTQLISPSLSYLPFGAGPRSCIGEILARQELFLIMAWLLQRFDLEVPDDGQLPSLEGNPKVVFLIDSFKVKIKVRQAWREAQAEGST

[5] = molecular target: T1, Steroid 17-alpha-hydroxylase/17,20 lyase; assay: Inhibition of human CYP17A1 lyase activity; format: ADME
[6] = molecular target: T1, Steroid 17-alpha-hydroxylase/17,20 lyase; assay: Inhibition of human CYP17A1 hydroxylase activity; format: ADME
[7] = molecular target: T3, Steroid 17-alpha-hydroxylase/17,20 lyase; assay: Inhibition of cynomolgus monkey CYP17A1 lyase activity; format: ADME
[8] = molecular target: T1, Steroid 17-alpha-hydroxylase/17,20 lyase; assay: Inhibition of human adrenal gland CYP17A1; format: ADME, tissue-based
[9] = Inhibition of cynomolgus monkey CYP11B1; format: ADME, Macaca fascicularis
[10] = Metabolic stability in human liver microsome assessed as half-life; format: ADME; conditions: liver microsomes
[11] = Metabolic stability in cynomolgus monkey liver microsome assessed as half-life; format: ADME, Macaca fascicularis; conditions: liver microsomes
[12] = Permeability across apical to basolateral side in human Caco-2 cells; format: ADME, cell-based; conditions: read-out: permeability
[13] = Permeability across basolateral to apical side in human Caco-2 cells; format: ADME, cell-based; conditions: read-out: permeability
[14] = molecular target: T4, Nuclear receptor subfamily 1 group I member 2 (Homo sapiens, UniProt O75469); assay: Inhibition of PXR (unknown origin)
T4 sequence (O75469 whole entry): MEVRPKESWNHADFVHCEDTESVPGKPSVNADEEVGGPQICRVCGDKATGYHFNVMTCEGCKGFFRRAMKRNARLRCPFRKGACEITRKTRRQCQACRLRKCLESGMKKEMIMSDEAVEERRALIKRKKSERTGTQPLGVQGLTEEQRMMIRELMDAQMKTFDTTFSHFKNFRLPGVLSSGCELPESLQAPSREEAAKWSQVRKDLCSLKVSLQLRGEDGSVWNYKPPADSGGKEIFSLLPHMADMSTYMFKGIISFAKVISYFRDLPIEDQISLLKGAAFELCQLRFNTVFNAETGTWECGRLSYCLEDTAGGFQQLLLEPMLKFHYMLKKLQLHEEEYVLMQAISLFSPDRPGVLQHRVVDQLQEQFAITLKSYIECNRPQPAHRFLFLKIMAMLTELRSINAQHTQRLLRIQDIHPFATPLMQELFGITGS

Cytochrome P450 2C19 = Cytochrome P450 2C19 (Homo sapiens, UniProt P33261); assay: Inhibition of recombinant human CYP2C19; format: ADME
Cytochrome P450 2C9 = Cytochrome P450 2C9 (Homo sapiens, UniProt P11712); assay: Inhibition of recombinant human CYP2C9; format: ADME
[15] = AUC in cynomolgus monkey at 1 mg/kg, po; format: ADME, organism-based, Macaca fascicularis; parameters: dose 1 mg/kg, route po; conditions: in vivo
[16] = Volume of distribution at steady state in cynomolgus monkey at 1 mg/kg, iv; format: ADME, organism-based, Macaca fascicularis; conditions: in vivo, read-out: Vdss
[17] = Oral bioavailability in cynomolgus monkey at 1 mg/kg; format: ADME, organism-based, Macaca fascicularis; conditions: in vivo
[18] = molecular target: T3, Steroid 17-alpha-hydroxylase/17,20 lyase; assay: In vivo inhibition of CYP17A1 in cynomolgus monkey assessed as decrease in testosterone level in blood at 1 mg/kg, po measured upto 24 hrs relative to control; format: functional, organism-based; parameters: scale not given: the % may be the effect or the level left
[19] = molecular target: T3, Steroid 17-alpha-hydroxylase/17,20 lyase; assay: In vivo inhibition of CYP17A1 in cynomolgus monkey assessed as decrease in testosterone level in blood at 1 mg/kg, po measured at 8 hrs; format: functional, organism-based
[20] = molecular target: T3, Steroid 17-alpha-hydroxylase/17,20 lyase; assay: In vivo inhibition of CYP17A1 in cynomolgus monkey assessed as fold increase in hydroxyprogesterone level in blood at 1 mg/kg, po measured upto 24 hrs; format: functional, organism-based
[21] = molecular target: T3, Steroid 17-alpha-hydroxylase/17,20 lyase; assay: In vivo inhibition of CYP17A1 in cynomolgus monkey assessed as increase in hydroxyprogesterone level in blood at 1 mg/kg, po measured at 4 hrs; format: functional, organism-based

Chain of Cytochrome P450 2C9 (P11712 whole entry): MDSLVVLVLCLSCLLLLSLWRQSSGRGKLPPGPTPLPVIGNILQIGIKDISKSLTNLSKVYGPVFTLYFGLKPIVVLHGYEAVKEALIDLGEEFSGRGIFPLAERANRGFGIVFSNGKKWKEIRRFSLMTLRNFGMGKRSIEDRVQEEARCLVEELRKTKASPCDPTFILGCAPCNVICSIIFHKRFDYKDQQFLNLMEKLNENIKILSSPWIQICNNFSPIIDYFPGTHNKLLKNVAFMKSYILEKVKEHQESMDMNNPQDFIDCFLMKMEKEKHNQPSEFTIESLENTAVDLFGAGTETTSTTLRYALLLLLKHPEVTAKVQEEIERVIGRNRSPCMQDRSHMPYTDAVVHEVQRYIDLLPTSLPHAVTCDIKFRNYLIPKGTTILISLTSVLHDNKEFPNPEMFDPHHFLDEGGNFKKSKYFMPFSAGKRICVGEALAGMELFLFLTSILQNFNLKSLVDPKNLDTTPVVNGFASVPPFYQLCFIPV
Chain of Cytochrome P450 2C19 (P33261 whole entry): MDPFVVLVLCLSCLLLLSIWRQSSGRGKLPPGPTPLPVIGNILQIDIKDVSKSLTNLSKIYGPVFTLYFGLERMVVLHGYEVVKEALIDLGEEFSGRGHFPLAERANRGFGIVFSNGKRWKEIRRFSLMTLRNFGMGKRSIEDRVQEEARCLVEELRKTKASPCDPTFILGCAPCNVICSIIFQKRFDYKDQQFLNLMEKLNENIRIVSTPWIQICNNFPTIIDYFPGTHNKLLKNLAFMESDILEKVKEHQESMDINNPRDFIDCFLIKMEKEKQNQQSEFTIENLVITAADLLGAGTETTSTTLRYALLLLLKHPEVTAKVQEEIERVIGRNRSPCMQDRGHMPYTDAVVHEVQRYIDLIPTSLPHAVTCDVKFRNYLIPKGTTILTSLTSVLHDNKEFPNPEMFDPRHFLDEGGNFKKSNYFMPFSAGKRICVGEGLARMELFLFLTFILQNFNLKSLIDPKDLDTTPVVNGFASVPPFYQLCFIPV

## Nc1ncncc1-c1ccnc2c1cnn2-c1ccc(F)cc1
[1]
  pIC50: 7.80
[2]
  Stability: 85%
Cytochrome P450 1A2
  pIC50: < 4.40
[3]
  Ratio: 11
[4]
  pIC50: 8.70
[5]
  pIC50: 8.10
[6]
  pIC50: 7.04
[7]
  pIC50: 8.22
[8]
  pIC50: 7.52
[9]
  pIC50: < 5.00
[10]
  half-life: > 2 h
[11]
  half-life: > 2 h
[12]
  Papp A→B: 28.2 ×10⁻⁶ cm/s
[13]
  Papp B→A: 21.2 ×10⁻⁶ cm/s
[14]
  pIC50: < 4.30
Cytochrome P450 2C19
  pIC50: < 4.40
Cytochrome P450 2C9
  pIC50: < 4.40
[15]
  AUC: 26 µM·h
[16]
  Vd: 3.5 L/kg
[17]
  bioavailability: 100%
[18]
  Activity: 83%
[19]
  Activity: 43 ng/dL
[20]
  fold change (FC): 14
[21]
  Activity: 7.7 ng/dL
